Experimental data: PubChem BioAssay (NCI)
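The compound was tested at five concentrations on cells cultured in 96-well plates, with a 48-hour exposure period. GI50 = concentration required for 50% inhibition of growth. TGI is the concentration that stops growth completely.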

Experiments:
Assay in all cases: NCI tumour cell line growth inhibition, 48 h
[1] = tested on: KM20L2 colon
[2] = tested on: DMS 114 small cell lung
[3] = tested on: M19-MEL melanoma
[4] = tested on: DLD-1 colon
[5] = tested on: XF 498 CNS
[6] = tested on: HCT-116 colon
[7] = tested on: PC-3 prostate
[8] = tested on: MDA-MB-231 breast
[9] = tested on: T-47D breast
[10] = tested on: MCF7 breast

| SMILES | TGI [1] [µM] | TGI [2] [µM] | TGI [3] [µM] | TGI [4] [µM] | TGI [5] [µM] | TGI [6] [µM] | TGI [7] [µM] | TGI [8] [µM] | TGI [9] [µM] | TGI [10] [µM] | GI50 [1] [µM] | GI50 [4] [µM] | GI50 [5] [µM] |
| --- | --- | --- | --- | --- | --- | --- | --- | --- | --- | --- | --- | --- | --- |
| Cc1cccc(C)c1N1C(=O)C(=O)C(c2nc3ccccc3s2)/C(=N/NC(=O)NN)C1=O (stereo unspecified) | > 100 | > 100 | > 100 | > 100 | > 100 | > 100 |  |  |  |  |  |  |  |
| COc1ccc(C2Oc3c(c(O)cc4c3[C@H](c3ccc(O)cc3O)[C@H](O)C(c3ccc(O)c(O)c3)O4)C[C@@H]2O)cc1O (stereo partly specified) | > 100 | > 100 | > 100 | > 100 |  | > 100 |  |  |  |  |  |  |  |
| Cc1c2ccncc2c(C)c2c1[nH]c1ccc(O)c(OCC(F)(F)F)c12 | 27.3 | 10.7 |  | 18.2 | 22.9 | 9.11 |  |  |  |  |  |  |  |
| C=C1C2Oc3ccccc3C1N(c1ccccc1)O2 (stereo unspecified) | > 100 | 79 | > 100 | > 100 | 43.5 | 54.2 |  |  |  |  |  |  |  |
| CC(C)(C)NCC(COc1ccc([N+](=O)[O-])cc1)OP(c1ccccc1)c1ccccc1 (stereo unspecified) | > 100 | 83.9 | > 100 | > 100 | 67.3 | > 100 |  |  |  |  |  |  |  |
| O=C(CC1(O)C(=O)Nc2c(Cl)ccc(Cl)c21)c1ccc(Cl)cc1Cl (stereo unspecified) | > 100 | 37.4 | 20.1 | > 100 | 33.9 | 33.1 |  |  |  |  |  |  |  |
| COc1ccccc1NC(=O)/C(=C/c1ccccc1)C(C)=O |  | > 100 | > 100 | > 100 | 89.5 | > 100 |  |  |  |  |  |  |  |
| CC(C)(C)c1ccc(OC2CCO2)cc1 (stereo unspecified) | 52.8 | > 100 | 56.1 |  |  | 41.8 |  |  |  |  |  |  |  |
| CC(C)(C)OC(=O)NC1CCCC1=O (stereo unspecified) | > 100 |  | > 100 | > 100 | > 100 | > 100 |  |  |  |  |  |  |  |
| Cc1c(C)c(CC(=O)N2CC2)c(C)c(C)c1CC(=O)N1CC1 | 47.3 | 24.5 | 27.4 | 56.5 |  | 28.5 | 58.2 | 48.1 | 80.5 | 63.4 |  |  |  |
| O=S1CSSC1 | 52.5 | 19.1 | 14.4 | 43.1 | 50.1 | 31.7 |  |  |  |  |  |  |  |
| C=CCNC(=O)N(CCC)CCCC(NC(C)=O)C(=O)NCc1ccccc1 (stereo unspecified) | > 100 | > 100 | > 100 |  | > 100 |  |  |  |  |  |  |  |  |
| CCCCCCCCCCCC1CC(=O)NCCCN(C)CCCCN(C)CCCN1C (stereo unspecified) | 3.01 | 3.19 | 3.24 | 3 | 3.08 | 2.89 |  |  |  |  |  |  |  |
| CC1=NN(C(=O)c2ccncc2)C(=O)C1N=Nc1ccc(F)cc1 (stereo unspecified) | > 100 | > 100 | > 100 | > 100 | > 100 | > 100 |  |  |  |  |  |  |  |
| COc1cc(CNc2nc3ccc(C(F)(F)F)cc3nc2-c2ccccc2)cc(OC)c1OC | > 100 |  | > 100 | > 100 | > 100 | > 100 |  |  |  |  |  |  |  |
| C[C@]12C/C(=C/O)C(=O)C(O)=C1CC[C@@H]1C2CC[C@@]2(C)C1CC[C@@H]2O (stereo partly specified) | 54.6 | 37.5 | 45.3 |  | 33 |  |  |  |  |  |  |  |  |
| Cc1cccc(N(CC(=O)O)S(=O)(=O)c2ccccc2)c1 | > 100 |  | > 100 | > 100 | > 100 |  |  |  |  |  |  |  |  |
| CC(=O)n1c(=O)c2cc3c(=O)n(-c4cccc(C#N)c4)c(=O)c3cc2c1=O | > 100 | > 100 | > 100 | > 100 |  | > 100 |  |  |  |  |  |  |  |
| CC1(C)CC(=O)C(CC2C(=O)c3ccccc3C2=O)C(=O)C1 | > 100 | > 100 | > 100 | > 100 |  | > 100 |  |  |  |  |  |  |  |
| O=c1[nH]c2cc([N+](=O)[O-])ccc2nc1/C(=N\Nc1ccccc1)C(O)c1ccc2c(c1)OCO2 (stereo unspecified) | > 100 | > 100 | > 100 | > 100 |  | > 100 |  |  |  |  |  |  |  |
| Cc1cccc(C)c1N1C(=O)C(=O)C(c2nc3ccccc3s2)C(=Nc2cccc3c(=O)[nH][nH]c(=O)c23)C1=O (stereo unspecified) | > 100 |  | > 100 | > 100 |  | > 100 |  |  |  |  |  |  |  |
| CC(C)[O-].CC(C)[O-].O=c1cccccc1[O-].O=c1cccccc1[O-].[Ti+4] | > 100 |  |  | > 100 | 97.3 | > 100 |  |  |  |  | 46.1 | 42 | 33.8 |
| CC1(O)CCn2c(=O)c3cc4ccccc4cc3c(=O)n2C1O (stereo unspecified) | > 100 | > 100 | > 100 | > 100 |  | > 100 |  |  |  |  |  |  |  |
| COC(=O)C1C(=O)N(CCc2c[nH]c3ccccc23)C[C@@H]2CCC(=O)C[C@H]12 (stereo partly specified) |  | > 100 | > 100 | > 100 | > 100 | > 100 |  |  |  |  |  |  |  |
| Cc1ccc(C)c(N2C(=O)C(=O)C(c3nc4ccccc4s3)C(=Nc3cccc4c(=O)[nH][nH]c(=O)c34)C2=O)c1 (stereo unspecified) | > 100 | > 100 |  | > 100 |  | > 100 |  |  |  |  |  |  |  |
| Cc1nc(-c2cccnc2)sc1C(=O)/C=C/c1cccc([N+](=O)[O-])c1 | > 100 | > 100 | > 100 | > 100 |  |  |  |  |  |  |  |  |  |
